In patent US5306721A (priority 1990, dated 1994):
Structures can show the parent of a compound that is named as a salt. Where two headings read alike, the source gives them in different places.

Legend:
immune system = settings: cited from earlier work
[1] = levamisole after oral administration to man; inosine benzoate about 50 mg/kg/day; cited from earlier work
[2] = tested on: effector T lymphocyte activity (contact hypersensitivity); experiment: Percutaneous test for detecting delayed contact hypersensitivity (contact dermatitis) after DNFB immunization; format: in vivo, guinea pig; settings: Cavia porcellus, Control: 100, oral 2 mg/kg daily
Description: 1.1 Percutaneous test for detecting contact hypersensitivity
The epicutaneous application of dinitrofluorobenzene (DNFB) led to the development of a delayed hypersensitivity in guinea pigs and mice, an immune status, which is linked to the clonal reproduction of antitrinitrophenyl (TNP)-specific T lymphocytes (TDTH -ly). If, after a latency period of at least 5 days, there is a renewed application of DNFB, lymphokines are released through the reaction with the TDTH -ly of this region of the skin and thus lead to a locally limited inflammatory reaction.
Seven days after the immunization with 1% DNFB, the sides of the experimental animals were depilated and tested by the application of one drop each of the 0.5%, 0.1%, 0.05, 0.025% and 0.01% DNFB solution. […] The test results are obtained from the severity and number of the positive skin reactions, and the stimulation index (SI) is obtained from the comparison of test animals and control animals.
The test substance is orally administered. A daily dose of 2 mg/kg of body weight, as an aqueous suspension, was administered daily by a stomach tube. Duration of treatment: 1 day+1 (one day after the immunization), up to +6. The control animals received only the lactose content of the composition.
(§1) The degree of sensitization in percent and the concentration of serum antibodies expressed as antibody titer difference is compared below to the respective control group (screening values).
(§2) A contact dermatitis value of 120 or more, i.e. corresponding to an at least 20% increase compared to the control, or of less than 80 are taken as proof of a stimulatory or suppressor effect, respectively. Antibody values of >+1 or <-1 illustrate the stimulatory or suppressor effect, respectively, of the substances on the humoral response.

[3] = tested on: DNP-specific serum antibodies; experiment: Takatsy test for DNP-specific serum antibodies (humoral immune response); format: in vivo, guinea pig; settings: difference to control group; blood taken 14 days after DNFB
Experimental: After immunization with DNFB, dinitrophenyl (DNP)-specific humoral antibodies, which preferentially belong to the IgG1 substance class, are developed in guinea pigs. Blood was taken from the experimental animals by puncture of the heart fourteen days after the primary epicutaneous application of DNFB. The antibody (AB) concentration was determined according to the method described by G. Takatsy: A New Method for the Preparation of Serial Dilutions in a Quick and Accurate Way, (Kiserletes Orvostudomany, Hungary, Vol. 2, 1950, pp. 263-396). TNP-laden sheep erythrocytes were used as indicator cells coupled according to Rittenberg and Pratt (M. B. Rittenberg, and K. L. Pratt, Antitrinitrophenyl Plaque Assay. Primary Response of BALB/c Mice to Soluble and Particulate Immunogen, Proc. Soc. Exp. Biol. Med., Vol. 132, 1969, pp. 575-579).
as §1, §2

[4] = tested on: SE-specific rosette-forming cells (RFC); experiment: Rosette test (SE-specific rosettes); format: in vivo, mouse (inbred CBA strain); settings: oral administration
Experimental: The testing of immunostimulatory effects was also conducted on the mouse (inbred CBA strain) by detection through the plaque test for detecting SE (sheep erythrocyte) -specific immunoglobulin M (IgM) and immunoglobulin G (IgG) PFC (plaque forming cells), and by the rosette test.
2.2 Rosette Test (SE-specific rosettes)
According to Burnet's Theory, lymphocytes carry immunoglobulin receptors on their surface. These receptors are directed against a particular antigen and are detectable by a reaction with the specific antigen. The determination of the number of rosette-forming cells (RFC) can serve as a measure of the strength of an incipient immune reaction and consequently also reproduce the effects of a suppression or stimulation of cell-proliferative processes.
Three days after the intravenous immunization with 2×10^5 SE in 0.2 ml physiological salt solution, the experimental animals were killed by hyperdistention, the spleen was removed and, after addition of Parker medium at pH 7.4, rubbed through Muller gauze. The work to recover the cell suspension was carried out in an ice-cooled water bath from about 0° C. to about 4° C. The determination of the cell density was carried out in a Neubauer counting chamber. Next, the cell count was adjusted to 1×10^7 nuclei-containing cell (NCC) per ml of medium, a count that was kept constant for all experimental formulations. Of this spleen cell suspension (1×10^7 NCC/ml), 0.9 ml were then mixed with 0.1 ml of a 5% washed SE suspension and incubated for 24 hours at 4° C. An NCC, which was surrounded by at least 4 erythrocytes and was identifiable, was rated as a rosette.

Vaccinia Lister [5] = experiment: microbe, parasite or virus in culture; format: cell-based; settings: Orthopoxvirus vaccinia, Fibroblast, in Gallus gallus
Herpes simplex type 1 = experiment: Grading replication test on RH cell line, herpes simplex type 1; format: cell-based, herpes simplex virus; settings: Human alphaherpesvirus 1, RH cells
Influenza A/WSN [6] = experiment: Grading replication test on chicken embryo fibroblasts, influenza; format: cell-based; settings: Influenza A virus, Fibroblast
Influenza A/WSN [7] = experiment: Grading replication test on RH cell line, influenza; format: cell-based, influenza virus; settings: RH cells
Vaccinia Lister [8] = experiment: microbe, parasite or virus in culture; format: cell-based; settings: Orthopoxvirus vaccinia
[9] = 24 h, day +1 to +6, read-out: Contact dermatitis, 24-hour reaction
[10] = 48 h, day +1 to +6, read-out: Contact dermatitis, 48-hour reaction
[11] = read-out: Inhibition of virus yield
[12] = read-out: Lowering the virus yield
[13] = 62.5 μmoles/l, read-out: Inhibition of virus yield
[14] = 62.5 μmoles/l, read-out: Lowering the virus yield
[15] = 125 μmoles/l, read-out: Inhibition of virus yield
[16] = 125 μmoles/l, read-out: Lowering the virus yield
[17] = 250 μmoles/l, read-out: Inhibition of virus yield
[18] = 250 μmoles/l, read-out: Lowering the virus yield

## c1ccc([C@H]2CN3CCSC3=N2)cc1 [levamisole hydrochloride]
Immune system
  immunological effect: predominantly immunorestorative effect
[1]
  side effects: vomiting, nausea, leucopenia, and agranulocytosis

## O=c1[nH]c2ccc(Br)cc2c(=O)n1CCCS [Example 14b, 6-Bromo-3-(3-mercapto-propyl)-quinazoline-2,4(1H,3H)-dione]
[2]; [9]
  response vs control in vivo at 2 mg/kg: 105%
[2]; [10]
  response vs control in vivo at 2 mg/kg: 100%
[3]
  DNP-specific antibodies (antibody titer difference): +2.2

## O=C(OC[C@H]1O[C@@H](n2cnc3c(O)ncnc32)[C@H](O)[C@@H]1O)c1ccccc1 [inosine benzoate]
Immune system
  immunological effect: primarily an immunostimulating effect
[1]
  side effects: vomiting, hyperuricemia and an increase in hematocrits

## O=c1[nH]c2ccc(Cl)cc2c(=O)n1CCS [Example 13, 6-chloro-3-(2-mercapto-ethyl)-quinazoline-2,4(1H,3H)-dione]
[2]; [9]
  response vs control in vivo at 2 mg/kg: 120%
[2]; [10]
  response vs control in vivo at 2 mg/kg: 130%

## CC(S)Cn1c(=O)[nH]c2ccc(F)cc2c1=O (centres unmarked) [Example 14d, 6-Fluoro-3-(2-mercapto-propyl)-quinazoline-2,4(1H,3H)-dione]
[2]; [9]
  response vs control in vivo at 2 mg/kg: 100%
[2]; [10]
  response vs control in vivo at 2 mg/kg: 150%

## O=c1[nH]c2ccc(Cl)cc2c(=O)n1CCCS [Example 8, 6-chloro-3-(3-mercapto-propyl)-quinazoline-2,4(1H,3H)-dione]
[2]; [9]
  response vs control in vivo at 2 mg/kg: 100%
[2]; [10]
  response vs control in vivo at 2 mg/kg: 115%

## CC(S)Cn1c(=O)[nH]c2ccccc2c1=O (centres unmarked) [Example 7, 3-(2-mercapto-propyl)-quinazoline-2,4(1H,3H)-dione]
[2]; [9]
  response vs control in vivo at 2 mg/kg: 230%
[3]
  DNP-specific antibodies (antibody titer difference): +1.8

## Cc1ccc2[nH]c(=O)n(CCCS)c(=O)c2c1 [Example 12, 6-methyl-3-(3-mercapto-propyl)-quinazoline-2,4(1H,3H)-dione]
[2]; [9]
  response vs control in vivo at 2 mg/kg: 120%
[2]; [10]
  response vs control in vivo at 2 mg/kg: 130%
[3]
  DNP-specific antibodies (antibody titer difference): +0.3

## Cc1ccc2[nH]c(=O)n(CCS)c(=O)c2c1 [Example 14a, 6-Methyl-3-(2-mercapto-ethyl)-quinazoline-2,4(1H,3H)-dione]
[2]; [9]
  response vs control in vivo at 2 mg/kg: 60%
[2]; [10]
  response vs control in vivo at 2 mg/kg: 60%
[3]
  DNP-specific antibodies (antibody titer difference): -1.9

## COc1cc2[nH]c(=O)n(CC(C)S)c(=O)c2cc1OC (centres unmarked) [Example 14e, 6,7-Dimethoxy-3-(2-mercapto-propyl)-quinazoline-2,4(1H,3H)-dione]
[4]
  production of SE-specific rosette-forming cells: significant production of SE-specific rosette-forming cells
[2]; [9]
  response vs control in vivo at 2 mg/kg: 100%

## O=c1[nH]c2ccccc2c(=O)n1CCCS [Example 6, 3-(3-Mercapto-propyl)-quinazoline-2,4(1H,3H)-dione]
[4]
  production of SE-specific rosette-forming cells: significant production of SE-specific rosette-forming cells
[2]; [9]
  response vs control in vivo at 2 mg/kg: 70%
[2]; [10]
  response vs control in vivo at 2 mg/kg: 40%
[3]
  DNP-specific antibodies (antibody titer difference): -1.5

## O=c1[nH]c2ccc(F)cc2c(=O)n1CCS [Example 14c, 6-Fluoro-3-(2-mercapto-ethyl)-quinazoline-2,4(1H,3H)-dione]
[2]; [9]
  response vs control in vivo at 2 mg/kg: 90%
[2]; [10]
  response vs control in vivo at 2 mg/kg: 105%

## CC(C)(N1CC1C#N)N1CC1C(N)=O (centres unmarked) [azimexone]
[1]
  side effects: headaches, vomiting and a decrease in haemoglobin (Hb) and erythrocytes

## COc1cc2[nH]c(=O)n(CCCS)c(=O)c2cc1OC [Example 2, 3-(3-mercapto-prop-1-yl)-6,7-dimethoxy-quinazoline-2,4(1H,3H)-dione]
Vaccinia Lister [5]; [11]
  inhibition at 31.25 µM: 99.9%
  inhibition at 62.5 µM: 99.9%
  inhibition at 125 µM: > 100%
  inhibition at 250 µM: > 100%
Vaccinia Lister [5]; [12]
  log reduction at 31.25 µM: 3
  log reduction at 62.5 µM: 3.5
  log reduction at 125 µM: 5
  log reduction at 250 µM: 5
Herpes simplex type 1; 31.25 μmoles/l, read-out: Inhibition of virus yield
  inhibition at 31.25 µM: 100%
Herpes simplex type 1; 31.25 μmoles/l, read-out: Lowering the virus yield
  log reduction at 31.25 µM: 3.67
Herpes simplex type 1; [13]
  inhibition at 62.5 µM: > 100%
Herpes simplex type 1; [14]
  log reduction at 62.5 µM: 5
Herpes simplex type 1; [15]
  inhibition at 125 µM: > 100%
Herpes simplex type 1; [16]
  log reduction at 125 µM: 6.5
Herpes simplex type 1; [17]
  inhibition at 250 µM: > 100%
Herpes simplex type 1; [18]
  log reduction at 250 µM: 6.5
Influenza A/WSN [6]; [13]
  inhibition at 62.5 µM: 99%
Influenza A/WSN [6]; [14]
  log reduction at 62.5 µM: 2
Influenza A/WSN [6]; [15]
  inhibition at 125 µM: > 100%
Influenza A/WSN [6]; [16]
  log reduction at 125 µM: 5
Influenza A/WSN [6]; [17]
  inhibition at 250 µM: > 100%
Influenza A/WSN [6]; [18]
  log reduction at 250 µM: 5
[4]
  production of SE-specific rosette-forming cells: significant production of SE-specific rosette-forming cells
[2]; [9]
  response vs control in vivo at 2 mg/kg: 180%
Influenza A/WSN [7]; 62.5 μmoles/l, n.s. = not significant
  Inhibition of virus yield: n.s.
Influenza A/WSN [7]; Influenza A virus, WSN, 31.25 μmoles/l, read-out: Lowering the virus yield
  log reduction at 31.25 µM: 0
Influenza A/WSN [7]; Influenza A virus, WSN, 62.5 μmoles/l, read-out: Lowering the virus yield
  log reduction at 62.5 µM: 0.5
Influenza A/WSN [7]; Influenza A virus, WSN, 125 μmoles/l, read-out: Inhibition of virus yield
  inhibition at 125 µM: 99%
Influenza A/WSN [7]; Influenza A virus, WSN, 125 μmoles/l, read-out: Lowering the virus yield
  log reduction at 125 µM: 2
Influenza A/WSN [7]; Influenza A virus, WSN, 250 μmoles/l, read-out: Inhibition of virus yield
  inhibition at 250 µM: 100%
Influenza A/WSN [7]; Influenza A virus, WSN, 250 μmoles/l, read-out: Lowering the virus yield
  log reduction at 250 µM: 6.17
Vaccinia Lister [8]; [11]
  inhibition at 31.25 µM: 99.8%
  inhibition at 62.5 µM: > 100%
  inhibition at 125 µM: > 100%
  inhibition at 250 µM: > 100%
Vaccinia Lister [8]; [12]
  log reduction at 31.25 µM: 2.84
  log reduction at 62.5 µM: 5
  log reduction at 125 µM: 5
  log reduction at 250 µM: 5

## COc1cc2[nH]c(=O)n(CCS)c(=O)c2cc1OC [Example 3, 3-(2-mercapto-ethyl)-6,7-dimethoxy-quinazoline-2,4(1H,3H)-dione]
[2]; [9]
  response vs control in vivo at 2 mg/kg: 100%
[3]
  DNP-specific antibodies (antibody titer difference): +1.0

## O=c1[nH]c2ccc(Br)cc2c(=O)n1CCS [Example 5, 6-bromo-3-(2-mercaptoethyl)-quinazoline-2,4(1H,3H)-dione]
[2]; [9]
  response vs control in vivo at 2 mg/kg: 150%
[2]; [10]
  response vs control in vivo at 2 mg/kg: 120%
[3]
  DNP-specific antibodies (antibody titer difference): -0.6
